From ChEMBL document CHEMBL1146460, “Caulibugulones A-F, novel cytotoxic isoquinoline quinones and iminoquinones from the marine bryozoan Caulibugula intermis” (J Nat Prod, 2004)
Converted amounts (≈) assume the structure as drawn.

Test: Cytotoxicity against wild type mouse IC2 cells after 48 hrs by MTT assay
Conditions: IC2, 48 h

`CNC1=CC(=O)c2ccncc2C1=O` [CAULIBUGULONE A] gave an IC50 of 0.34 µg/mL (≈ 1.81 µM).

Compound `CNC1=C(Br)C(=O)c2ccncc2C1=O` [CAULIBUGULONE B] has an IC50 of 0.28 µg/mL (≈ 1.05 µM).

With `CNC1=C(Cl)C(=O)c2ccncc2C1=O` [CAULIBUGULONE C] the IC50 was 0.22 µg/mL (≈ 0.988 µM).

`O=C1C=C(NCCO)C(=O)c2cnccc21` [CAULIBUGULONE D] gave an IC50 of 1.67 µg/mL (≈ 7.65 µM).

For `CNC1=CC(=N)c2ccncc2C1=O` [CAULIBUGULONE E], the IC50 was 0.03 µg/mL (≈ 0.16 µM).

`CNC1=C/C(=N\CCO)c2ccncc2C1=O` [CAULIBUGULONE F] gave an IC50 of 0.1 µg/mL (≈ 0.432 µM).
